Test results: patent publication US20050043262A1, “Novel specific inhibitor of the cyclin kinase inhibitor p21Waf1/Cip1 and methods of using the inhibitor” (priority 2000, published 2005)
In the oligonucleotide strings, read from the 5' end, every base follows the letter of its sugar. An asterisk marks phosphorothioate; unmarked linkages are phosphodiester. Other units and linkages are bracketed, terminal groups are in braces. A string of capitals states the bases alone. d = 2'-deoxy (DNA)

How the values were obtained:
Type in all cases: cell-based, human
[1] = tested on: caspase-3; assay: Caspase-3 activity (CaspACE colorimetric assay) in T47D cells; conditions: 200 to 400 nM
Protocol: Caspase-3 Activity: The CaspACE Assay System was used to measure the activity of caspase-3. After incubation under appropriate conditions, the cells were lysed in CaspACE lysis buffer, and protein concentration was determined by dye reagent protein assay (Bio-Rad, Hercules, Calif.). […] The lysates with equal protein amounts were incubated with DEVD-p-nitroaniline substrate for 4 hours at 37° C. The reaction products were detected at 405 nm using a PowerWave X automated plate reader (Bio-Tek Instruments).
As another confirmatory test for antisense p21 ODN-mediated apoptosis, caspase-3 activation was assessed. Members of the caspase family of proteases are essential components of an evolutionarily conserved cell death pathway in multicellular eukaryotes and play key roles in inflammation and apoptosis in mammalian cells. Caspase-3 has substrate specificity for the amino acid sequence DEVD (Asp-Glu-Val-Asp) and is inhibited by the tetrapeptide inhibitor Ac-DEVD-CHO; its catalytic activity was assessed colorimetrically using the labeled Ac-DEVD-pNA substrate. […] T47D cells were grown to confluence, serum starved for 24 hours, and lipofected with antisense p21 or control ODN at the concentrations indicated. Caspase-3 activity was assessed as described in “Capase-3 Activity” using a colorimetric method. […]

[2] = tested on: p21; assay: p21 level in MCF7 cells (immunoblot, immunohistochemistry); conditions: for p21 level by immunoblot: 200 or 400 nM, 24 hours after transfection
Protocol: (§1) Antisense Transfections: […] (Wilsonville, Oreg.). The human p21 antisense ODN sequence was [NT] ID NO.: 4). The randomly scrambled sequence of control ODN was [NT] ID NO.: 3), and the second control ODN (used for the experiment depicted in FIG. 34 was the sense human p21 sequence [NT] ID NO.: 5). For the transfection procedure, cells were grown to 70% confluence and washed with sterile PBS, and the ODNs (200 or 400 nM) were mixed with 6.6 μl Lipofectin/ml Opti-MEM media and added to the cells for 5 hours at 37° C. Serum-free media (without ODNs) were added overnight, the media were changed in the morning, and the cells were stimulated with serum or platelet-derived growth factor-BB as indicated. Immunoblotting: For FIGS. 27A and B, aliquots of each breast tumor (7) and corresponding normal (N) tissue were homogenized and subjected to immunoblotting with full-length p21 antibody and α-actin as a loading control. Density of p21 and actin bands was determined and reported as a ratio. HeLa cell nuclear extract was electrophoresed on the same gel as a positive control for p21 mobility. The samples of breast cancer tissues were cut into small pieces and rapidly homogenized in lysis buffer (1 ml/ mg) at 4° C. Cells from cell lines were grown to confluence in 60-mm culture dishes, and after incubation under appropriate conditions, the cells were washed with PBS and lysed in lysis buffer at 4° C. The tissue homogenates or cell lysates were centrifuged (13,000× g, 4° C., 10 min), and the supernatants were Western blotted as described previously (Weiss, […]., and Ramirez, A., Am. J. Physiol., 274: […]-[…], 1998). Densitometry was analyzed using NIH Image. […] Percentage of cytoplasmic and nuclear staining, intensity of staining (using a scale of 0 to 3+), and tumor grading using a modified Bloom-Richardson combined histological grade were determined by a breast pathologist. […] A and B, the cells were lysed, and equal protein quantities (20 μg) were electrophoresed and immunoblotted with p21 antibody. […] Density of p21 and MAPK bands was determined and reported as a ratio. […]

[3] = tested on: PARP; assay: PARP cleavage by immunoblot in T47D cells
Protocol: As a further measure of apoptosis, cleavage of PARP was next examined. This protein is cleaved by caspases and results in appearance of Mr 85,000 and Mr 24,000 fragments, the latter of which binds irreversibly to broken ends of DNA, which assures irreversibility of apoptosis. Both breast cancer cell lines were transfected with antisense p21 and random sequence ODNs and immunoblotted with PARP antibody. […] T47D (A) and MCF7 (B) cells were grown to confluence, serum starved for 24 hours, and lipofected with antisense p21 or control ODN at the concentrations indicated. cont refers to nontransfected cells, and lipofect refers to cells treated with lipofectin but no DNA. The cells were lysed, and equal protein quantities were electrophoresed and immunoblotted with PARP antibody. The degradation product of PARP (Mr 85,000) is indicated by an arrow. MAPK is a loading control; a positive PARP cleavage control is Jurkat whole cell lysate.

[4] = tested on: p21; assay: p21 level in T47D cells (immunoblot, immunohistochemistry); conditions: for p21 level by immunoblot: 200 or 400 nM, 24 hours after transfection
Protocol: as §1

[5] = compared with random sequence ODN

Row | Substance | caspase-3 cleavage (activity) [1] | p21 level by immunoblot [2] | PARP cleavage (Mr 85,000 product) [3] | p21 level by immunoblot [4] | p21 staining by immunohistochemistry [2, 5] | p21 staining by immunohistochemistry [4, 5]
1 | 5′-TGG ATC CGA CAT GTC AGA-3′ (dT*dG*dG*dA*dT*dC*dC*dG*dA*dC*dA*dT*dG*dT*dC*dA*dG*dA) [random sequence control oligonucleotide, reference compound] | no change | moderate decrease | proapoptotic effect | inhibitory effect |  | 
2 | 5′-ATC-CCC-AGC-CGG-TTC-TGA-CAT-3′ (antisense ATCCCCAGCCGGTTCTGACAT; listed as DNA, chemistry not fully specified) [antisense p21 ODN] | marked dose-dependent caspase-3 cleavage | marked, dose-dependent attenuation | marked PARP cleavage | marked, dose-dependent attenuation | decreased p21 staining | decreased p21 staining
